Results from patent US10696615B2, “Prenylated hydroxystilbenes” (The University of Sydney, priority 2011, dated 2020).

Experiments:
[1] = tested on: T-47D; assay: NCI in vitro cancer screen, Breast Cancer; format: cell-based, human
[2] = tested on: KM12; assay: NCI in vitro cancer screen, Colon Cancer; format: cell-based, human; details: KM12
[3] = tested on: UACC-62; assay: NCI in vitro cancer screen, Melanoma; format: cell-based, human; details: UACC-62
[4] = tested on: 786-0; assay: NCI in vitro cancer screen, Renal Cancer; format: cell-based, human; details: 786-0
[5] = tested on: RXF-393; assay: NCI in vitro cancer screen, Renal Cancer; format: cell-based, human; details: RXF-393
[6] = tested on: SW-620; assay: NCI in vitro cancer screen, Colon Cancer; format: cell-based, human; details: SW-620
[7] = tested on: SF-539; assay: NCI in vitro cancer screen, CNS Cancer; format: cell-based; details: SF-539
[8] = tested on: SF-268; assay: NCI in vitro cancer screen, CNS Cancer; format: cell-based, human; details: SF-268
[9] = tested on: SK-MEL-5; assay: NCI in vitro cancer screen, Melanoma; format: cell-based, human; details: SK-MEL-5
[10] = tested on: HOP-62; assay: NCI in vitro cancer screen, Non-Small Cell Lung Cancer; format: cell-based, human; details: HOP-62
[11] = tested on: HL-60 (TB); assay: NCI in vitro cancer screen, Leukemia; format: cell-based, human; details: HL-60 (TB)
[12] = tested on: SF-295; assay: NCI in vitro cancer screen, CNS Cancer; format: cell-based, human; details: SF-295
[13] = tested on: NCI-H522; assay: NCI in vitro cancer screen, Non-Small Cell Lung Cancer; format: cell-based, human; details: NCI-H522
[14] = tested on: SK-OV-3; assay: NCI in vitro cancer screen, Ovarian Cancer; format: cell-based, human; details: SK-OV-3
[15] = tested on: NCI-H226; assay: NCI in vitro cancer screen, Non-Small Cell Lung Cancer; format: cell-based, human; details: NCI-H226
[16] = tested on: SNB-75; assay: NCI in vitro cancer screen, CNS Cancer; format: cell-based, human; details: Homo sapiens, SNB-75
[17] = tested on: TK-10; assay: NCI in vitro cancer screen, Renal Cancer; format: cell-based, human; details: TK-10
[18] = tested on: PC-3; assay: NCI in vitro cancer screen, Prostate Cancer; format: cell-based, human; details: PC-3
[19] = tested on: OVCAR-5; assay: NCI in vitro cancer screen, Ovarian Cancer; format: cell-based, human; details: OVCAR-5
[20] = tested on: LOX IMVI; assay: NCI in vitro cancer screen, Melanoma; format: cell-based, human
[21] = tested on: SN12C; assay: NCI in vitro cancer screen, Renal Cancer; format: cell-based, human
[22] = tested on: A498; assay: NCI in vitro cancer screen, Renal Cancer; format: cell-based, human; details: A498
[23] = tested on: K-562; assay: NCI in vitro cancer screen, Leukemia; format: cell-based, human; details: K-562
[24] = tested on: HS 578T; assay: NCI in vitro cancer screen, Breast Cancer; format: cell-based, human
[25] = tested on: MOLT-4; assay: NCI in vitro cancer screen, Leukemia; format: cell-based, human; details: MOLT-4
[26] = tested on: HOP-92; assay: NCI in vitro cancer screen, Non-Small Cell Lung Cancer; format: cell-based, human; details: HOP-92
[27] = tested on: IGROV1; assay: NCI in vitro cancer screen, Ovarian Cancer; format: cell-based, human; details: IGROV1
[28] = tested on: OVCAR-8; assay: NCI in vitro cancer screen, Ovarian Cancer; format: cell-based, human; details: OVCAR-8
[29] = tested on: OVCAR-3; assay: NCI in vitro cancer screen, Ovarian Cancer; format: cell-based, human; details: OVCAR-3
[30] = tested on: A549/ATCC; assay: NCI in vitro cancer screen, Non-Small Cell Lung Cancer; format: cell-based, human
[31] = tested on: MDA-MB-435; assay: NCI in vitro cancer screen, Melanoma; format: cell-based, human; details: MDA-MB-435
[32] = Homo sapiens, read-out: LC50 (the source's name)

In the case of COc1cc(O)cc(/C=C/c2ccc(O)c(O)c2)c1CC=C(C)C [USYDS9, (E)-2-(3-methyl-2-buten-1-yl)-3′,4′,5-trihydroxy-3-methoxystilbene], the TGI [1] is reported as 36.9 µM, the GI50 ([1]; Homo sapiens, T47D) is reported as 4.78 µM and the CC50 ([1]; Homo sapiens, T47D, read-out: LC50 (the source's name)) is reported as greater than 100 µM. The GI50 ([2]; Homo sapiens) was 0.52 µM, the CC50 [2, 32] was 63.9 µM and the TGI [2] was 12.2 µM. For the same compound, the GI50 ([3]; Homo sapiens) was 3.22 µM, the CC50 [3, 32] was greater than 100 µM and the TGI [3] was 34.8 µM. It also gave a TGI [4] of 18.7 µM, a GI50 ([4]; Homo sapiens) of 2.99 µM and an LC50 (50% net cell kill) ([4]; Homo sapiens) greater than 100 µM. It also gave a GI50 ([5]; Homo sapiens) of 0.23 µM, a CC50 [5, 32] greater than 100 µM and a TGI [5] of 0.63 µM. The GI50 ([6]; Homo sapiens) was 0.31 µM, the CC50 [6, 32] was 75 µM and the TGI [6] was 15.3 µM. The GI50 ([7]; Homo sapiens) was 0.28 µM, the CC50 [7, 32] was greater than 100 µM and the TGI [7] was 1.02 µM. For the same compound, the GI50 ([8]; Homo sapiens) was 0.63 µM, the CC50 [8, 32] was greater than 100 µM and the TGI [8] was 37.6 µM. The GI50 ([9]; Homo sapiens) was 0.39 µM, the CC50 [9, 32] was greater than 100 µM and the TGI [9] was 2.52 µM. It also gave a TGI [10] greater than 100 µM, a GI50 ([10]; Homo sapiens) of 2.87 µM and a CC50 [10, 32] greater than 100 µM. The TGI [11] was 0.43 µM, the GI50 ([11]; Homo sapiens) was 0.2 µM and the CC50 [11, 32] was 0.95 µM. It also gave a GI50 ([12]; Homo sapiens) of 2.6 µM, a CC50 [12, 32] greater than 100 µM and a TGI [12] of 20.5 µM. For the same compound, the GI50 ([13]; Homo sapiens) was 0.15 µM, the CC50 [13, 32] was 44.8 µM and the TGI [13] was 0.45 µM. The GI50 ([14]; Homo sapiens) was 0.5 µM, the CC50 [14, 32] was greater than 100 µM and the TGI [14] was 5.12 µM. For the same compound, the GI50 ([15]; Homo sapiens) was 18.6 µM, the LC50 (50% lethal concentration) ([15]; Homo sapiens) was greater than 100 µM and the TGI [15] was 57.9 µM. The GI50 [16] was 0.24 µM, the CC50 ([16]; read-out: LC50 (the source's name)) was greater than 100 µM and the GI50 ([17]; Homo sapiens) was 5.34 µM. The LC50 ([17]; Homo sapiens) was greater than 100 µM, the TGI [17] was 41.2 µM and the GI50 ([18]; Homo sapiens) was 2.92 µM. For the same compound, the CC50 [18, 32] was greater than 100 µM, the TGI [18] was greater than 100 µM and the GI50 ([19]; Homo sapiens) was 30.7 µM. For the same compound, the CC50 [19, 32] was greater than 100 µM, the TGI [19] was greater than 100 µM and the TGI [20] was 58.6 µM. The GI50 ([20]; Homo sapiens) was 0.64 µM, the CC50 [20, 32] was greater than 100 µM and the TGI [21] was 83.5 µM. The GI50 ([21]; Homo sapiens) was 1.76 µM, the CC50 [21, 32] was greater than 100 µM and the TGI [22] was 53.5 µM. The GI50 ([22]; Homo sapiens) was 10.3 µM, the CC50 [22, 32] was greater than 100 µM and the GI50 ([23]; Homo sapiens, K562) was 0.33 µM. The CC50 ([23]; Homo sapiens, K562, read-out: LC50 (the source's name)) was greater than 100 µM, the TGI [23] was 13.9 µM and the TGI [24] was 0.73 µM. For the same compound, the GI50 ([24]; Homo sapiens) was 0.2 µM, the CC50 [24, 32] was greater than 100 µM and the GI50 ([25]; Homo sapiens) was 1.27 µM. It also gave a CC50 [25, 32] greater than 100 µM, a TGI [25] of 6.77 µM and a TGI [26] greater than 100 µM. It also gave a GI50 ([26]; Homo sapiens) of 0.62 µM, a CC50 [26, 32] greater than 100 µM and a GI50 ([27]; Homo sapiens, IGROV-1) of 4.57 µM. The CC50 ([27]; Homo sapiens, IGROV-1, read-out: LC50 (the source's name)) was greater than 100 µM, the TGI [27] was greater than 100 µM and the GI50 ([28]; Homo sapiens) was 0.5 µM. It also gave a CC50 [28, 32] greater than 100 µM, a TGI [28] of 38.3 µM and a GI50 ([29]; Homo sapiens) of 0.9 µM. For the same compound, the CC50 [29, 32] was 24.8 µM, the TGI [29] was 3.84 µM and the TGI [30] was 41.5 µM. For the same compound, the GI50 ([30]; Homo sapiens) was 2.62 µM, the CC50 [30, 32] was greater than 100 µM and the GI50 ([31]; Homo sapiens) was 0.13 µM. For the same compound, the CC50 [31, 32] was greater than 100 µM and the TGI [31] was 0.42 µM.
